Biological target: T1, human XIAP_BIR3 domain purified protein (Homo sapiens, UniProt P98170)
T1 construct: purchased R & D
Assay: XIAP binding inhibitory activity, HTRF method with b-Smac ligand
Conditions: for inhibition at 3 µM: test compound 3 μM, first symbol of the cell, read-out: XIAP binding inhibition rate when the concentration of the test compound is 3 μM; for IC50: second symbol of the cell, read-out: XIAP binding 50% inhibitory concentration (IC50 value)
Method: Human XIAP binding inhibitory activity were measured by the Homogeneous Time Resolved Fluorescence (HTRF) method with using commercially available human XIAP_BIR3 domain purified protein (R & D) and as a ligand a Smac N-terminal peptide (AVPIAQK (SEQ ID NO: 1)) (hereinafter referred to as “b-Smac”; Peptide Research Laboratories, Inc.) biotinylated at the C-terminus according to a conventional method.
The HTRF method will be described in detail below. A test compound diluted with a reaction buffer was added to a 384-well white shallow bottom plate (Greiner 784076) at 1 μL/well and flash centrifuged for 30 seconds. Subsequently, human XIAP_BIR3 domain purified protein was diluted with the reaction buffer (25 mM HEPES Buffer containing 100 mM NaCl, 0.1% BSA, and 0.1% triton X-100, pH 7.5) to obtain a 90 nM sample diluent, and the resultant sample diluent was added to the above-mentioned white superficial plate at 4.5 μL/well and flash centrifuged for 30 seconds. Subsequently, b-Smac diluted to 90 nM with the reaction buffer was added to the above-mentioned white superficial plat at 4.5 μL/well and flash centrifuged for 30 seconds. A mixed solution of Anti-6 HIS-Cryptate (Eu3+Cryptate-conjugated mouse monoclonal antibody anti-6 Histidine; cisbio) and Streptavidin-XL^ent! (Highgrade XL665-conjugated streptavidin; cisbio) both diluted 100-fold with HTRF detection buffer (cisbio) at a volume ratio of 1:1 was added to the above white superficial plate at 10 μL/well. After flash centrifuging the white shallow bottom plate for 30 seconds, the white shallow bottom plate was left at room temperature for 4 hours or more in the dark. The white superficial plate after being left was subjected to fluorescence intensity measurement (excitation wavelength: 320 nm, fluorescence wavelength: 665 nm and 615 nm) by EnVision (Perkin Elmer).
The binding inhibition rate (%) was calculated based on the HTRF ratio in the presence of the test compound to the HTRF ratio in the absence of the test compound (fluorescence intensity at 665 nm/fluorescence intensity at 615 nm).

T1 sequence (P98170 252-356 limits assumed): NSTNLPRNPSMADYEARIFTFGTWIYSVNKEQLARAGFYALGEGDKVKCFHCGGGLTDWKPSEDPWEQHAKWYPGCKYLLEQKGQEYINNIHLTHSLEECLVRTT

inhibition at 3 µM [%] | IC50 [µM] | SMILES
25 to 50 | – | CN[C@@H](C)C(=O)N[C@H](C(=O)N1CCN(C(=O)c2ccc3nn(C)cc3c2)CC1)C1CCCCC1 [Example 22, (S)-N-((S)-1-cyclohexyl-2-(4-(2-methyl-2H-indazole-5-carbonyl)piperazin-l-yl)-2-oxoethyl)-2-(methylamino)propanamide]
– | < 0.3 | CN[C@@H](C)C(=O)N[C@H](C(=O)N1CCN(C(=O)c2ccc3c(c2)cc(C)n3CCOCCOCCO)CC1)C1CCCCC1 [Example 69, (S)—N—((S)-1-Cyclohexyl-2-(4-(1-(2-(2-(2-hydroxyethoxy)ethoxy)ethyl)-2-methyl-1H-indole-5-carbonyl)piperazine-1-yl)-2-oxoethyl)-2-(methylamino)propanamide]
– | 0.3 to 3 | CN[C@@H](C)C(=O)N[C@H](C(=O)N1CCN(C(=O)c2ccc3c(c2)cc(C)n3CCOCCOCCOCCO)CC1)C1CCCCC1 [Example 70, (S)—N—((S)-1-Cyclohexyl-2-(4-(1-(2-(2-(2-(2-hydroxyethoxy)ethoxy)ethoxy)ethyl)-2-methyl-1H-indole-5-carbonyl)piperazin-1-yl)-2-oxoethyl)-2-(methylamino)propanamide]
50 to 75 | – | CN[C@@H](C)C(=O)N[C@H](C(=O)N1CCN(C(=O)c2c(C(=O)NCCOCCOCC(=O)N3CCN(c4cc(Nc5ncc(C(=O)Nc6c(C)cccc6Cl)s5)nc(C)n4)CC3)c3cc(F)ccc3n2C)CC1)C1CCCCC1 [Example 85, N-(2-chloro-6-methylphenyl)-2-((6-(4-(2-(2-(2-(2-(4-((S)-2-cyclohexyl-2-((S)-2-(methylamino)propanamido)acetyl)piperazine-1-carbonyl)-5-fluoro-1-methyl-1H-indole-3-carboxamido)ethoxy)ethoxy)acetyl)piperazin-1-yl)-2-methylpyrimidin-4-yl)amino)thiazole-5-carboxamide]
– | 3 to 30 | CN[C@@H](C)C(=O)N[C@H](C(=O)N1CCN(C(=O)c2cc3cc(F)c(F)cc3n2CCOCCO)CC1)C1CCCCC1 [Example 45, (S)—N—((S)-1-Cyclohexyl-2-(4-(5,6-difluoro-1-(2-(2-hydroxyethoxy)ethyl)-1H-indole-2-carbonyl)piperazin-1-yl)-2-oxoethyl)-2-(methylamino)propanamide]
– | 0.3 to 3 | CN[C@@H](C)C(=O)N[C@H](C(=O)N1CCN(C(=O)c2cc3c(OCCOCCOCCO)c(F)c(F)cc3n2C)CC1)C1CCCCC1 [Example 67, (S)—N—((S)-1-Cyclohexyl-2-(4-(5,6-difluoro-4-(2-(2-(2-hydroxyethoxy)ethoxy)ethoxy)-1-methyl-1H-indole-2-carbonyl)piperazin-1-yl)-2-oxoethyl)-2-(methylamino)propanamide]

The next lines start with the compound.

SMILES | inhibition at 3 µM [%] | IC50 [µM]
CN[C@@H](C)C(=O)N[C@H](C(=O)N1CCN(C(=O)c2ccc3nc(C)nn3c2)CC1)C1CCCCC1 [Example 19, (S)-N-((S)-1-cyclohexyl-2-(4-(2-methyl-[1,2,4]triazolo[1,5-a]pyridine-6-carbonyl)piperazin-1-yl)-2-oxoethyl)-2-(methylamino)propanamide] | > 25 | –
CN[C@@H](C)C(=O)N[C@H](C(=O)N1CCN(C(=O)c2ccn3cc(C)nc3c2)CC1)C1CCCCC1 [Example 21, (S)-N-((S)-1-cyclohexyl-2-(4-(2-methylimidazo[1,2-a]pyridine-7-carbonyl)piperazin-1-yl)-2-oxoethyl)-2-(methylamino)propanamide] | > 25 | –
CN[C@@H](C)C(=O)N[C@H](C(=O)N1CCN(C(=O)c2cc(OCCOC)nn2C)CC1)C1CCCCC1 [Example 8, (S)-N-((S)-1-cyclohexyl-2-(4-(3-(2-methoxyethoxy)-1-methyl-1H-pyrazole-5-carbonyl)piperazin-1-yl)-2-oxoethyl)-2-(methylamino)propanamide] | > 25 | –
CN[C@@H](C)C(=O)N[C@H](C(=O)N1CCN(C(=O)c2ccn3nccc3c2)CC1)C1CCCCC1 [Example 2, (S)-N-((S)-1-cyclohexyl-2-oxo-2-(4-(pyrazolo[1,5-a]pyridine-5-carbonyl)piperazin-1-yl)ethyl)-2-(methylamino)propanamide] | 25 to 50 | –

From US12202829B2, “Heterocyclic compound” (FIMECS, Inc., priority 2018, dated 2025)
